Patent US12077503B2, “Substituted cyclic amides and their use as herbicides” (FMC CORPORATION, priority 2015, dated 2024)

Experiments:
Format in all cases: in vivo
[1] = test system: barnyardgrass (Echinochloa crus-galli); experiment: Test G Pre-Emergence Protocol; conditions: Echinochloa crus-galli, pre-emergence, 312 h, evaluated after 13 days; for pest or weed control at 15.625 g/ha: 15.625 g ai/ha, read-out: Barnyard grass damage rating (100=total damage to plant; 0=no damage to plant); for pest or weed control at 62.5 g/ha: 62.5 g ai/ha, 100=total damage to plant, 0=no damage to plant, read-out: plant damage rating, Barnyardgrass; for pest or weed control at 250 g/ha: 250 g ai/ha, read-out: Barnyardgrass damage rating (100=total damage to plant; 0=no damage to plant)
In short: (§1)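 Visual injury (0–100) at day 13 after a single pre-emergence spray. Rates: 15.625, 62.5, 250 g/ha in acetone–water 50:50 with 0.5% Tween 20. Growth conditions: 24/16° C, 14 h light, 65% humidity.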

[2] = test system: corn (Zea mays); experiment: Test G Pre-Emergence Protocol; conditions: Zea mays, pre-emergence, 312 h, evaluated after 13 days; for plant injury at 15.625 g/ha: 15.625 g ai/ha; for plant injury at 15.625 g/ha / plant injury at 250 g/ha: read-out: Corn damage rating (100=total damage to plant; 0=no damage to plant); for plant injury at 62.5 g/ha: 62.5 g ai/ha, 100=total damage to plant, 0=no damage to plant, read-out: plant damage rating, Corn; for plant injury at 250 g/ha: 250 g ai/ha
In short: as §1

[3] = test system: giant foxtail (Setaria faberi); experiment: Test G Pre-Emergence Protocol; conditions: Setaria faberi, pre-emergence, 312 h, evaluated after 13 days; for pest or weed control at 15.625 g/ha: 15.625 g ai/ha; for pest or weed control at 15.625 g/ha / pest or weed control at 250 g/ha: read-out: Foxtail, Giant damage rating (100=total damage to plant; 0=no damage to plant); for pest or weed control at 62.5 g/ha: 62.5 g ai/ha, 100=total damage to plant, 0=no damage to plant, read-out: plant damage rating, Foxtail, Giant; for pest or weed control at 250 g/ha: 250 g ai/ha
In short: as §1

[4] = test system: ivy-leaved morning glory (Ipomoea hederacea); experiment: Test G Pre-Emergence Protocol; conditions: Ipomoea, pre-emergence, 312 h, evaluated after 13 days; for pest or weed control at 62.5 g/ha: 62.5 g ai/ha, 100=total damage to plant, 0=no damage to plant, read-out: plant damage rating, Morningglory, Ivy-leaved; for pest or weed control at 15.625 g/ha: 15.625 g ai/ha, read-out: Morning-glory, Ivy-leaved damage rating (100=total damage to plant; 0=no damage to plant); for pest or weed control at 250 g/ha: 250 g ai/ha, read-out: Morningglory, Ivy-leaved damage rating (100=total damage to plant; 0=no damage to plant)
In short: as §1

[5] = test system: redroot pigweed (Amaranthus retroflexus); experiment: Test G Pre-Emergence Protocol; conditions: Amaranthus retroflexus, pre-emergence, 312 h, evaluated after 13 days; for pest or weed control at 15.625 g/ha: 15.625 g ai/ha; for pest or weed control at 15.625 g/ha / pest or weed control at 250 g/ha: read-out: Pigweed, Redroot damage rating (100=total damage to plant; 0=no damage to plant); for pest or weed control at 62.5 g/ha: 62.5 g ai/ha, 100=total damage to plant, 0=no damage to plant, read-out: plant damage rating, Pigweed, Redroot; for pest or weed control at 250 g/ha: 250 g ai/ha
In short: as §1

[6] = test system: velvetleaf (Abutilon theophrasti); experiment: Test G Pre-Emergence Protocol; conditions: Abutilon theophrasti, pre-emergence, 312 h, evaluated after 13 days; for pest or weed control at 15.625 g/ha: 15.625 g ai/ha; for pest or weed control at 15.625 g/ha / pest or weed control at 250 g/ha: read-out: Velvetleaf damage rating (100=total damage to plant; 0=no damage to plant); for pest or weed control at 62.5 g/ha: 62.5 g ai/ha, 100=total damage to plant, 0=no damage to plant, read-out: plant damage rating, Velvetleaf; for pest or weed control at 250 g/ha: 250 g ai/ha
In short: as §1

[7] = test system: barnyardgrass (Echinochloa crus-galli); experiment: Test G Post-Emergence Protocol; conditions: Echinochloa crus-galli, post-emergence, 312 h; for pest or weed control at 15.625 g/ha: 15.625 g ai/ha, evaluated after 13 days (100=total damage to plant; 0=no damage to plant), read-out: Barnyardgrass damage rating; for pest or weed control at 62.5 g/ha: 62.5 g ai/ha, read-out: Barnyardgrass damage rating (100=total damage to plant; 0=no damage to plant); for pest or weed control at 62.5 g/ha / pest or weed control at 250 g/ha: evaluated after 13 days; for pest or weed control at 250 g/ha: 250 g ai/ha, read-out: damage to plant, Barnyardgrass (100=total damage to plant; 0=no damage to plant)
In short: (§2)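 Foliar application was made 8 days after sowing, using an aqueous spray of the active in acetone/water (50:50) with 0.5% Tween 20, at doses of 15.625, 62.5 or 250 g/ha. Injury was assessed 13 days later, where 100 meant the plant was fully damaged.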

[8] = test system: corn (Zea mays); experiment: Test G Post-Emergence Protocol; conditions: Zea mays, post-emergence, 312 h; for plant injury at 15.625 g/ha: 15.625 g ai/ha, evaluated after 13 days (100=total damage to plant; 0=no damage to plant), read-out: Corn damage rating; for plant injury at 62.5 g/ha: 62.5 g ai/ha, read-out: Corn damage rating (100=total damage to plant; 0=no damage to plant); for plant injury at 62.5 g/ha / plant injury at 250 g/ha: evaluated after 13 days; for plant injury at 250 g/ha: 250 g ai/ha, read-out: damage to plant, Corn (100=total damage to plant; 0=no damage to plant)
In short: as §2

[9] = test system: giant foxtail (Setaria faberi); experiment: Test G Post-Emergence Protocol; conditions: Setaria faberi, post-emergence, 312 h; for pest or weed control at 15.625 g/ha: 15.625 g ai/ha, evaluated after 13 days (100=total damage to plant; 0=no damage to plant), read-out: Foxtail, Giant damage rating; for pest or weed control at 62.5 g/ha: 62.5 g ai/ha, read-out: Foxtail, Giant damage rating (100=total damage to plant; 0=no damage to plant); for pest or weed control at 62.5 g/ha / pest or weed control at 250 g/ha: evaluated after 13 days; for pest or weed control at 250 g/ha: 250 g ai/ha, read-out: damage to plant, Foxtail, Giant (100=total damage to plant; 0=no damage to plant)
In short: as §2

[10] = test system: ivy-leaved morning glory (Ipomoea hederacea); experiment: Test G Post-Emergence Protocol; conditions: Ipomoea, post-emergence, 312 h; for pest or weed control at 15.625 g/ha: 15.625 g ai/ha, evaluated after 13 days (100=total damage to plant; 0=no damage to plant), read-out: Morningglory, Ivy-leaved damage rating; for pest or weed control at 62.5 g/ha: 62.5 g ai/ha, read-out: Morningglory, Ivy-leaved damage rating (100=total damage to plant; 0=no damage to plant); for pest or weed control at 62.5 g/ha / pest or weed control at 250 g/ha: evaluated after 13 days; for pest or weed control at 250 g/ha: 250 g ai/ha, read-out: damage to plant, Morningglory, Ivy-leaved (100=total damage to plant; 0=no damage to plant)
In short: as §2

[11] = test system: redroot pigweed (Amaranthus retroflexus); experiment: Test G Post-Emergence Protocol; conditions: Amaranthus retroflexus, post-emergence, 312 h; for pest or weed control at 15.625 g/ha: 15.625 g ai/ha, evaluated after 13 days (100=total damage to plant; 0=no damage to plant), read-out: Pigweed, Redroot damage rating; for pest or weed control at 62.5 g/ha: 62.5 g ai/ha, read-out: Pigweed, Redroot damage rating (100=total damage to plant; 0=no damage to plant); for pest or weed control at 62.5 g/ha / pest or weed control at 250 g/ha: evaluated after 13 days; for pest or weed control at 250 g/ha: 250 g ai/ha, read-out: damage to plant, Pigweed, Redroot (100=total damage to plant; 0=no damage to plant)
In short: as §2

[12] = test system: velvetleaf (Abutilon theophrasti); experiment: Test G Post-Emergence Protocol; conditions: Abutilon theophrasti, post-emergence, 312 h; for pest or weed control at 15.625 g/ha: 15.625 g ai/ha, evaluated after 13 days (100=total damage to plant; 0=no damage to plant), read-out: Velvetleaf damage rating; for pest or weed control at 62.5 g/ha: 62.5 g ai/ha, read-out: Velvetleaf damage rating (100=total damage to plant; 0=no damage to plant); for pest or weed control at 62.5 g/ha / pest or weed control at 250 g/ha: evaluated after 13 days; for pest or weed control at 250 g/ha: 250 g ai/ha, read-out: damage to plant, Velvetleaf (100=total damage to plant; 0=no damage to plant)
In short: as §2

| SMILES | pest or weed control at 15.625 g/ha [1] | pest or weed control at 62.5 g/ha [1] | pest or weed control at 250 g/ha [1] | plant injury at 15.625 g/ha [2] | plant injury at 62.5 g/ha [2] | plant injury at 250 g/ha [2] | pest or weed control at 15.625 g/ha [3] | pest or weed control at 62.5 g/ha [3] | pest or weed control at 250 g/ha [3] | pest or weed control at 62.5 g/ha [4] | pest or weed control at 15.625 g/ha [5] | pest or weed control at 62.5 g/ha [5] | pest or weed control at 250 g/ha [5] | pest or weed control at 15.625 g/ha [6] | pest or weed control at 62.5 g/ha [6] | pest or weed control at 250 g/ha [6] | pest or weed control at 15.625 g/ha [7] | pest or weed control at 62.5 g/ha [7] | pest or weed control at 250 g/ha [7] | plant injury at 15.625 g/ha [8] | further results |
| --- | --- | --- | --- | --- | --- | --- | --- | --- | --- | --- | --- | --- | --- | --- | --- | --- | --- | --- | --- | --- | --- |
| CN1C[C@H](c2ccc3ccccc3c2)[C@@H](C(=O)Nc2cccc(F)c2F)C1=O (racemic) [Compound 1501] | 0% | 50% | 60% | 0% | 0% | 0% | 0% | 70% | 80% | 0% | 0% | 0% | 0% | 0% | 0% | 0% | 10% | 50% | 60% | 10% | plant injury at 62.5 g/ha [8]: 20%; plant injury at 250 g/ha [8]: 30%; pest or weed control at 15.625 g/ha [9]: 40%; pest or weed control at 62.5 g/ha [9]: 60%; pest or weed control at 250 g/ha [9]: 60%; pest or weed control at 15.625 g/ha [10]: 0%; pest or weed control at 62.5 g/ha [10]: 0%; pest or weed control at 250 g/ha [10]: 0%; pest or weed control at 15.625 g/ha [11]: 0%; pest or weed control at 62.5 g/ha [11]: 0%; pest or weed control at 250 g/ha [11]: 0%; pest or weed control at 15.625 g/ha [12]: 0%; pest or weed control at 62.5 g/ha [12]: 0%; pest or weed control at 250 g/ha [12]: 0% |
| Cc1cnc(NC(=O)[C@@H]2C(=O)N(C)C[C@H]2c2ccc(C(F)(F)F)cc2)nn1 (racemic) [Compound 1508] | 0% | 0% | 0% | 0% | 0% | 0% | 0% | 0% | 0% | 0% | 0% | 0% | 0% | 0% | 0% | 0% | 0% | 0% | 0% | 0% | pest or weed control at 15.625 g/ha [4]: 0%; pest or weed control at 250 g/ha [4]: 0%; plant injury at 62.5 g/ha [8]: 0%; plant injury at 250 g/ha [8]: 0%; pest or weed control at 15.625 g/ha [9]: 0%; pest or weed control at 62.5 g/ha [9]: 0%; pest or weed control at 250 g/ha [9]: 0%; pest or weed control at 15.625 g/ha [10]: 0%; pest or weed control at 62.5 g/ha [10]: 0%; pest or weed control at 250 g/ha [10]: 0%; pest or weed control at 15.625 g/ha [11]: 0%; pest or weed control at 62.5 g/ha [11]: 0%; pest or weed control at 250 g/ha [11]: 0%; pest or weed control at 15.625 g/ha [12]: 0%; pest or weed control at 62.5 g/ha [12]: 0%; pest or weed control at 250 g/ha [12]: 0% |
| CN1C[C@@H](c2ccc(C(F)(F)F)cc2)[C@H](C(=O)Nc2cc(F)ncn2)C1=O (racemic) [Compound 1509] | 0% | 0% | 0% | 0% | 0% | 0% | 0% | 0% | 0% | 0% | 0% | 0% | 0% | 0% | 0% | 0% | 0% | 0% | 0% | 0% | pest or weed control at 15.625 g/ha [4]: 0%; pest or weed control at 250 g/ha [4]: 0%; plant injury at 62.5 g/ha [8]: 0%; plant injury at 250 g/ha [8]: 0%; pest or weed control at 15.625 g/ha [9]: 0%; pest or weed control at 62.5 g/ha [9]: 0%; pest or weed control at 250 g/ha [9]: 0%; pest or weed control at 15.625 g/ha [10]: 0%; pest or weed control at 62.5 g/ha [10]: 0%; pest or weed control at 250 g/ha [10]: 0%; pest or weed control at 15.625 g/ha [11]: 0%; pest or weed control at 62.5 g/ha [11]: 0%; pest or weed control at 250 g/ha [11]: 0%; pest or weed control at 15.625 g/ha [12]: 0%; pest or weed control at 62.5 g/ha [12]: 0%; pest or weed control at 250 g/ha [12]: 0% |
